Legend:
Assay type in all cases: in vivo, Sprague-Dawley rats
[1] = tested on: ventral prostate weight; assay: Oral androgenic potency, ventral prostate weight assay in orchidectomized immature rats (gavage daily for seven days); details: for oral activity relative to methyltestosterone (potency ratio): oral administration, summary statement, standard methyltestosterone; for oral androgenic activity, times as potent as methyltestosterone: gavage daily for 7 days in 10% ethanol/sesame oil (oily carrier), ventral prostate weight
Description: (§1) Immature (about 21-day-old) Sprague-Dawley rats were orchidectomized under anesthesia, and randomly assignee to groups of ten animals for each dose level of the active undergoing testing. Each active was dissolved in 10% ethanol/sesame oil and administered by gavage (oral) each day for seven days beginning on the date of the orchidectomy. The animals were sacrificed 24 hours after the last dose, and the ventral prostate and seminal vesicles were excised, cleaned of fat and connective tissue, blotted on moist filter paper and weighed to the nearest 0.1 mg. See, e.g., Hershberger, L. et al, Myotrophic Activity of 19-nortestosterone And Other Steroids Determined By Modified Levator And Muscle Method, Proc. Soc. Exptl. Biol. Med 83 175–180 (1953). Regression analysis was performed by conventional methods using a PROPHET data management system. See, e.g., Bliss, C., The Statistics of Bioassay (Academic Press, New York, 1952); Hollister, C., Nucleic Acids Res. 16 1873–75 (1988). Ventral prostate weight was used as the endpoint because it is the sensitive organ to androgenic stimulation.
as §1, with “(oral) or subcutaneous injection” for “(oral)”, “mg.” for “mg. See, e.g., Hershberger, L. et al, Myotrophic Activity of 19-nortestosterone And Other Steroids Determined By Modified Levator And Muscle Method, Proc. Soc. Exptl. Biol. Med 83 175–180 (1953).”, “system.” for “system. See, e.g., Bliss, C., The Statistics of Bioassay (Academic Press, New York, 1952); Hollister, C., Nucleic Acids Res. 16 1873–75 (1988).”
Immature (about 21-day-old) Sprague-Dawley rats were orchidectomized under anesthesia, and randomly assignee to groups of ten animals for each dose level of the active undergoing testing. Four dosage forms were prepared. The first two forms constituted a solution of each active in 10% ethanol/sesame oil. The third and fourth dosage forms constituted a suspension of each active in an aqueous carrier (as described in Example 2, supra). These dosage forms were then administered by gavage (oral) to separate animal groups each day for seven days beginning on the date of the orchidectomy. Each carrier was also administered (alone) to separate groups of animals as a control. The animals were sacrificed 24 hours after the last dose, and the ventral prostate and seminal vesicles were excised, cleaned of fat and connective tissue, blotted on moist filter paper and weighed to the nearest 0.1 mg. See, e.g., Hershberger, L. et al, Myotrophic Activity of 19-nortestosterone And Other Steroids Determined By Modified Levator And Muscle Method, Proc. Soc. Exptl. Biol. Med. 83 175–180 (1953). Regression analysis was performed by conventional methods using a PROPHET data management system. See, e.g., Bliss, C., The Statistics of Bioassay (Academic Press, New York, 1952); Hollister, C., Nucleic Acids Res. 16 1873–75 (1988). Ventral prostate weight was used as the endpoint because it is the sensitive organ to androgenic stimulation.
Immature (about 21 day old) Sprague male rats were orchidectomized under anesthesia, and randomly assignee to groups often animals for each dose level of the active undergoing testing. Animals were maintained under standard conditions of housing and had free access to food and water. Illumination was controlled for 14 hour periods of light and 10 hours of darkness. Each active was dissolved in 10% ethanol/sesame oil and administered by gavage (oral) each day for seven days beginning on the date of the orchidectomy. […]

[2] = tested on: ventral prostate weight; assay: Subcutaneous androgenic potency, ventral prostate weight assay in orchidectomized immature rats (injection daily for seven days); details: ventral prostate weight assay following subcutaneous administration; alcohol of G = 1.0 (assigned); value is for the free alcohol of the listed ester
Description: as §1, with “(oral) or subcutaneous injection” for “(oral)”, “mg.” for “mg. See, e.g., Hershberger, L. et al, Myotrophic Activity of 19-nortestosterone And Other Steroids Determined By Modified Levator And Muscle Method, Proc. Soc. Exptl. Biol. Med 83 175–180 (1953).”, “system.” for “system. See, e.g., Bliss, C., The Statistics of Bioassay (Academic Press, New York, 1952); Hollister, C., Nucleic Acids Res. 16 1873–75 (1988).”
as §1, with “subcutaneous injection” for “gavage (oral)”, “Bid. Med.” for “Biol. Med”
Immature (about 22-day-old) Sprague-Dawley male rats were orchidectomized under anesthesia, and randomly assignee to groups of ten animals for each dose level of the active undergoing testing. […] Illumination was controlled for 14 hour periods of light and 10 hours of darkness.
Each active was administered by subcutaneous injection of 0.6 mg of test material in aqueous suspending vehicle (ASV) and/or an oily vehicle (10% ethanol/sesame oil) on the day of surgery. Testosterone enanthate in sesame oil was used as a standard. The ventral prostate and seminal vesicles were excised, cleaned of fat and connective tissue, blotted on moist filter paper and weighed to the nearest 0.1 mg. Regression analysis was performed by conventional methods using a PROPHET data management system. Ventral prostate weight was used as the endpoint because it is the sensitive organ to androgenic stimulation.

[3] = tested on: ventral prostate weight; assay: Duration of androgenic activity after subcutaneous injection, ventral prostate weight over weeks in orchidectomized immature rats; details: for area under the curve (AUC, trapezoidal rule) of ventral prostate weight: 12 week period, FIG. 22
Description: Immature (about 21-day-old) Sprague-Dawley rats were orchidectomized under anesthesia, and randomly assignee to groups of ten animals for each dose level of the active undergoing testing. Each active was administered by subcutaneous injection each day for seven days beginning on the date of the orchidectomy. The animals were sacrificed 24 hours after the last dose, and the ventral prostate and seminal vesicles were excised, cleaned of fat and connective tissue, blotted on moist filter paper and weighed to the nearest 0.1 mg. Regression analysis was performed by conventional methods using a PROPHET data management system. Ventral prostate weight was used as the endpoint because it is the sensitive organ to androgenic stimulation.
Except for testosterone enanthate, each active was formulated in two different carriers: (1) an aqueous suspension and (2) in sesame oil. Testosterone enanthate was formulated using the sesame oil carrier only, because it exists as a liquid at room temperature and could not therefore be formulated as an aqueous suspension.
(§2) The carrier used to provide the aqueous suspension was formulated as follows: 1 g benzyl alcohol, 0.5 g sodium carboxylethyl cellulose 50, 0.376 g disodium hydrogen phosphate dihydrate, 1.495 g sodium dihydrogen phosphate dihydrate, with water for injection (WFI) being added to bring volume of the carrier up to 100 ml.
Each formulation was prepared at a concentration of 0.6 mg/0.2 ml.
Immature (about 21-day-old) Sprague-Dawley rats were orchidectomized under anesthesia, and randomly assignee to groups of 40 or more. Animals received a single subcutaneous injection of 0.6 mg of each ester in 0.2 ml of an aqueous suspending carrier and/or oily carrier (10% ethanol/90% sesame oil or ethyl oleate) on the date of the orchidectomy. In cases where the ester was not solid at room temperature, 10% ethanol/sesame oil or ethyl oleate was used as the carrier. In this example, the carrier used to provide the aqueous suspension was formulated as follows: 1 g benzyl alcohol, 0.5 g sodium carboxylethyl cellulose 50, 0.376 g disodium hydrogen phosphate dihydrate, 1.495 g sodium dihydrogen phosphate dihydrate, with water for injection (WFI) being added to bring volume of the carrier up to 100 ml.
Five animals from each group were sacrificed at weekly or biweekly intervals, and the ventral prostate and seminal vesicles were excised, cleaned of fat and connective tissue, blotted on moist filter paper and weighed to the nearest 0.1 mg.
Ventral prostate weight was used as the endpoint because it is the sensitive organ to androgenic stimulation. Regression analysis was performed by conventional methods using the PROPHET data management system previously identified.
Immature (about 21-day-old) Sprague-Dawley rats were orchidectomized under anesthesia, and randomly assignee to groups of 40 or more. Animals received a single subcutaneous injection of 0.6 mg of the undecanoate in 0.2 ml of an aqueous suspending carrier and/or oily carrier (10% ethanol/90% sesame oil containing 5 mg/ml chlorobutanol as a preservative, or ethyloleate) on the date of the orchidectomy. The enanthate ester was formulated using the 10% ethanol/sesame oil or ethyloleate carrier as a first standard, with the 10% ethanol/sesame oil carrier used as a second standard.
as §2, with “In this example, the” for “The”
Immature (about 21-day-old) Sprague-Dawley rats were orchidectomized under anesthesia, and randomly assignee to groups of 40 or more. […] The enanthate ester was formulated using the 10% ethanol/sesame oil or ethyloleate carrier as a first standard, with the 10% ethanol/sesame oil carrier used as a second standard.

Row | Compound | oral activity relative to methyltestosterone (potency ratio) [1] | Androgenic Potency (activity of corresponding alcohol) [2] | other results
1 | CCCCCCCCCCC(=O)O[C@H]1CC[C@H]2[C@H]3[C@H]([C@@H](C)C[C@]12C)[C@H]1CCC(=O)C=C1C[C@H]3C | about twice |  | 
2 | CCCCCCCCCCC(=O)O[C@H]1CC=C2[C@H]3[C@H]([C@@H](C)C[C@@]21C)[C@H]1CCC(=O)C=C1C[C@H]3C | at least about twice |  | 
3 | CCCCC1CCC(C(=O)O[C@H]2CC=C3[C@H]4[C@H]([C@@H](C)C[C@@]32C)[C@H]2CCC(=O)C=C2C[C@H]4C)CC1 (stereo partly shown) | at least about six times |  | 
4 | CCCC[C@H]1CC[C@H](C(=O)O[C@H]2CC[C@H]3[C@H]4[C@H](CC[C@]23C)[C@H]2CCC(=O)C=C2C[C@H]4C)CC1 [A, 7α-Methyl-19-nortestosterone-17β-bucyclate] |  | 8.1^3 | 
5 | CCCC[C@H]1CC[C@H](C(=O)O[C@H]2CC[C@H]3[C@H]4[C@H](CC[C@]23C)[C@H]2CCC(=O)C[C@@H]2C[C@H]4C)CC1 [B, 7α-Methyl-5α-dihydro-19-nortestosterone-17β-bucyclate] |  | 1.2 | 
6 | CCCC[C@H]1CC[C@H](C(=O)O[C@H]2CC=C3[C@@H]4[C@H](C)CC5=CC(=O)CC[C@]5(C)[C@H]4CC[C@@]32C)CC1 [C, 7α-Methyl-14-dehydro-testosterone-17β-bucyclate] |  | 61.1 | 
7 | CCCC[C@H]1CC[C@H](C(=O)O[C@H]2CC=C3[C@H]4[C@H](CC[C@@]32C)[C@H]2CCC(=O)C=C2C[C@H]4C)CC1 [CDB-4327A, 7α-Methyl-14-dehydro-19-nortestosterone-17β-bucyclate, reference compound] |  |  | ventral prostate weight over time after single subcutaneous injection (in words) ([3]; 0.6 mg in 0.2 ml oily carrier, up to 20 weeks, FIG. 9): surprising stimulation of ventral prostate size over the entire 20-week observation period
8 | C[C@@H]1CC2=CC(=O)CC[C@@H]2[C@@H]2[C@@H]1C1=CC[C@H](O)[C@@]1(C)C[C@@H]2C [Compound III, 7α,11β-dimethyl-17β-hydroxyestra-4,14-dien-3-one] | ~1.96 |  | 
9 | CCCCCCCCCCC(=O)O[C@H]1CC=C2[C@H]3[C@H]([C@@H](C)C[C@@]21C)[C@H]1CCC(=O)C=C1C[C@H]3C [Compound IV, 7α,11β-dimethyl-17β-hydroxyestra-4,14-dien-3-one 17-undecanoate] |  |  | duration of activity on parenteral administration (summary in words) ([3]; parenteral administration, relative to other actives): not long-acting; oral androgenic activity, times as potent as methyltestosterone [1]: about two to about nine times
10 | CCCCC1CCC(C(=O)O[C@H]2CC=C3[C@H]4[C@H]([C@@H](C)C[C@@]32C)[C@H]2CCC(=O)C=C2C[C@H]4C)CC1 (stereo partly drawn) [Compound V, 7α,11β-dimethyl-17β-hydroxyestra-4,14-dien-3-one 17β-4-n-butylcyclohexanecarboxylate] |  |  | ventral prostate weight over time after single subcutaneous injection (in words) ([3]; 0.6 mg in 0.2 ml aqueous vehicle): most dramatic increases and maintenance of ventral prostate weight; AUC of ventral prostate weight, times greater than for testosterone enanthate in oily carrier ([3]; active in aqueous vehicle versus testosterone enanthate in sesame oil/oily carrier, single subcutaneous 0.6 mg): about 3 times; area under the curve (AUC, trapezoidal rule) of ventral prostate weight ([3]; single subcutaneous 0.6 mg in aqueous vehicle): 1521 mg-weeks; oral androgenic activity, times as potent as methyltestosterone [1]: about six to about eighteen times
11 | CCCCC1CCC(C(=O)OC2CCCC3C4C(C)CC5=CC(=O)CCC5(C)C4CCC23C)CC1 [D, 7α-Methyl-D-homo-testosterone-17β-bucyclate] |  | 36.4–61.7^3 | 
12 | CCCCCCC(=O)O[C@H]1CC[C@H]2[C@@H]3CCC4=CC(=O)CC[C@]4(C)[C@H]3CC[C@]12C [testosterone enanthate, reference compound] |  |  | area under the curve (AUC, trapezoidal rule) of ventral prostate weight ([3]; single subcutaneous 0.6 mg in oily carrier): 513 mg-weeks
